Where two headings read alike, the source gives them in different places.
System: HIV-1JR-FL
Experiment: Viral infection assay, recombinant HIV-1 pseudotyped with JR-FL Env (wild type and mutants), Cf2Th-CD4/CCR5 cells
Format: cell-based
Conditions: for Fold change: mutant/wild-type IC50
Description: HIV-1 Env mutants. Mutations were introduced into the plasmid expressing the fulllength HIV-1YU2 or HIV-1JR-FL Envs using the QuikChange II site-directed mutagenesis protocol or the QuikChange multi site-directed mutagenesis kit (Stratagene). The presence of the desired mutations was confirmed by DNA sequencing. All HIV-1 Env residues are numbered based on alignment with the HXBc2 prototypic sequence, according to current convention.
Production of recombinant HIV-1 expressing luciferase. […] After 48 hours, the supernatant was collected, buffered with 50 mM Hepes pH 7.4 (final concentration) and centrifuged for 5 minutes at 750×g and 4° C. The virus-containing supernatant was used directly or frozen at −80° C.
Viral infection assay. Each test compound was serially diluted in DMSO in a 96-well B&W isoplate (PerkinElmer, Boston, Mass.) using an HP D300 Digital Dispenser, to a final volume of 450 nl. DMSO was used as a control. Viruses pseudotyped with a specific Env were added to each well and incubated briefly at room temperature. Cf2Th-CD4/CCR5 cells were detached with StemPro Accutase Cell Dissociation Reagent (Invitrogen, cat #A11105-01), washed once, and 5000 cells were added to each well. […] Following incubation, the medium was aspirated and cells were lysed with 30 μl of Passive Lysis Buffer (Promega, cat #E1941). The activity of the firefly luciferase, which was used as a reporter protein in the system, was measured with a Centro LB 960 luminometer (Berthold Technologies, Oak Ridge, Tenn.). One hundred microliters of assay buffer (15 mM MgSO4, 15 mM KH2PO4/K2HPO4 pH 7.8, 1 mM ATP and 1 mM DTT) was injected to each well, followed by a 50 μl injection of 1 mM Dluciferin potassium salt (BD Pharmingen, San Jose, Calif.); luminescence was measured for 2 sec. Infection of PBMC was done as above, but 20,000-40,000 cells/well and viruses concentrated by ultracentrifugation were used. After four hours of incubation with viruses, the cells were centrifuged at 200×g for 6 minutes at 4° C., resuspended in 100 μl RPMI-PBMC medium and incubated at 37° C. for an additional 36-40 hours (total 40-44 hours). Supernatant was removed after centrifugation at 400×g for 5 minutes and cells were processed to detect luciferase activity, as described above.

SMILES: O=C(N/N=C/c1ccc(O)cc1)Nc1cccc2nsnc12 [Compound 18A]
- IC50 (Example 8 table, read-out: IC50 (JR-FL)): 3.6 µM
- Fold change (JR-FL Env D167A): 1.5
- IC50 (JR-FL Env D167A, read-out: IC50): 5.3 ± 1.5 µM
- Fold change (JR-FL Env E153A): 0.9
- IC50 (JR-FL Env E153A, read-out: IC50): 3.1 ± 0.7 µM
- Fold change (JR-FL Env E168K + N188A): 0.7
- Fold change (JR-FL Env I109W): 0.4
- IC50 (JR-FL Env I109W, read-out: IC50): 1.6 ± 0.8 µM
- Fold change (JR-FL Env I154A): 4.8
- IC50 (JR-FL Env I154A, read-out: IC50): 17.1 ± 0.9 µM
- Fold change (JR-FL Env I194A): 0.5
- IC50 (JR-FL Env I194A, read-out: IC50): 1.8 ± 0.4 µM
- Fold change (JR-FL Env I424A): 4.5
- IC50 (JR-FL Env I424A, read-out: IC50): 16.2 ± 2 µM
- Fold change (JR-FL Env K155A): 0.6
- IC50 (JR-FL Env K155A, read-out: IC50): 2.1 ± 0.9 µM
- Fold change (JR-FL Env K178A): 0.4
- IC50 (JR-FL Env K178A, read-out: IC50): 1.6 ± 0.3 µM
- Fold change (JR-FL Env L175A): 2.1
- IC50 (JR-FL Env L175A, read-out: IC50): 7.7 ± 1.2 µM
- Fold change (JR-FL Env L179G): 1.8
- IC50 (JR-FL Env L179G, read-out: IC50): 6.5 ± 0.7 µM
- Fold change (JR-FL Env L193A): 5.0
- IC50 (JR-FL Env L193A, read-out: IC50): 18.1 ± 2 µM
- Fold change (JR-FL Env M147A): 1.3
- IC50 (JR-FL Env M147A, read-out: IC50): 4.8 ± 1.2 µM
- Fold change (JR-FL Env M434A): 5.0
- IC50 (JR-FL Env M434A, read-out: IC50): 17.9 ± 1.2 µM
- Fold change (JR-FL Env N136A): 0.5
- IC50 (JR-FL Env N136A, read-out: IC50): 1.8 ± 0.1 µM
- Fold change (JR-FL Env N139A): 0.5
- IC50 (JR-FL Env N139A, read-out: IC50): 1.9 ± 0.2 µM
- Fold change (JR-FL Env N141A): 0.5
- IC50 (JR-FL Env N141A, read-out: IC50): 1.7 ± 0.3 µM
- Fold change (JR-FL Env N156A): 5.2
- IC50 (JR-FL Env N156A, read-out: IC50): 18.7 ± 1.5 µM
- Fold change (JR-FL Env N187A + N188A): 0.7
- Fold change (JR-FL Env N188A): 1.2
- IC50 (JR-FL Env N188A, read-out: IC50): 4.2 ± 0.8 µM
- Fold change (JR-FL Env Q114E): 0.9
- IC50 (JR-FL Env Q114E, read-out: IC50): 3.4 ± 0.6 µM
- Fold change (JR-FL Env Q422A): 2.2
- IC50 (JR-FL Env Q422A, read-out: IC50): 7.8 ± 1.7 µM
- Fold change (JR-FL Env R166A): 0.8
- IC50 (JR-FL Env R166A, read-out: IC50): 2.9 ± 0.6 µM
- Fold change (JR-FL Env T143A + S146A): 0.7
- Fold change (JR-FL Env T163A + S164A): 0.8
- Fold change (JR-FL Env V134A): 0.8
- IC50 (JR-FL Env V134A, read-out: IC50): 2.8 ± 2.1 µM
- Fold change (JR-FL Env V430S): 0.2
- IC50 (JR-FL Env V430S, read-out: IC50): 0.7 ± 0.3 µM
- Fold change (JR-FL Env W112A): 0.8
- IC50 (JR-FL Env W112A, read-out: IC50): 2.8 ± 0.7 µM
- Fold change (JR-FL Env W479A): 0.2
- IC50 (JR-FL Env W479A, read-out: IC50): 0.8 ± 0.2 µM
- Fold change (JR-FL Env Y173A): 0.9
- IC50 (JR-FL Env Y173A, read-out: IC50): 3.1 ± 1.2 µM
- Fold change (JR-FL Env Y177A): 2.8
- IC50 (JR-FL Env Y177A, read-out: IC50): 10.2 ± 1 µM
- Fold change (JR-FL Env Y435A): 3.5
- IC50 (JR-FL Env Y435A, read-out: IC50): 12.7 ± 3.5 µM
- IC50 (JR-FL Env double mutant E168K + N188A, read-out: IC50): 2.4 ± 1.4 µM
- IC50 (JR-FL Env double mutant N187A + N188A, read-out: IC50): 2.5 ± 0.6 µM
- IC50 (JR-FL Env double mutant T143A + S146A, read-out: IC50): 2.4 ± 0.2 µM
- IC50 (JR-FL Env double mutant T163A + S164A, read-out: IC50): 2.7 ± 0.3 µM
- Fold change (JR-FL Env wild type): 1
- IC50 (JR-FL Env wild type, read-out: IC50): 3.6 µM
- Therapeutic Index (TI) (calculated from IC50 against JR-FL and A-MLV): 15.9
- effect of glycosidase inhibitor treatment of virions on 18A inhibition (virions produced in the presence of two glycosidase inhibitors): Neither treatment had a significant effect

From patent publication US20170298056A1, “SMALL MOLECULE INHIBITORS OF HIV-1 ENTRY AND METHODS OF USE THEREOF” (Dana-Farber Cancer Institute, Inc., priority 2014, published 2017)
